Data set [1] has as its system BK polyomavirus. The data set can be described thus: Antiviral activity against BKV Gardner ATCC VR837 infected in human WI38 cells assessed as reduction in viral DNA level preincubated for 2 hrs before viral infection measured after 7 days by real time PCR assay. It is filed as functional, organism-based, Betapolyomavirus hominis, WI-38.
A short description of data set [2]: Cytotoxicity against human WI38 cells assessed as reduction in cellular DNA level preincubated for 2 hrs before viral infection measured after 7 days by real time PCR assay. It is filed as cell-based, WI-38. The settings on record: for CC50 at 168 h: WI38 cells.
Data set [3] is described as follows: Selectivity index, ratio of CC50 for human WI38 cells preincubated for 2 hrs before viral infection measured after 7 days by real time PCR assay to EC50 for BKV Gardner ATCC VR837. It is filed as toxicity, cell-based, WI-38. Conditions: for selectivity ratio at 168 h: WI38 cells, read-out: Ratio CC50/EC50; call rule not given here.
The test system of data set [4] is BK polyomavirus. The data set is described as follows: Antiviral activity against BKV Gardner ATCC VR837 infected in human WI38 cells assessed as reduction in viral DNA level after 7 days by real time PCR assay. It is filed as functional, organism-based. Conditions: Betapolyomavirus hominis, WI-38, 168 h.
Data set [5] can be described thus: Selectivity index, ratio of CC50 for human WI38 cells after 7 days by real time PCR assay to EC50 for BKV Gardner ATCC VR837. It is filed as toxicity, cell-based, WI-38. The settings on record: read-out: Ratio CC50/EC50.
Data set [6] in a line: Cytotoxicity against human WI38 cells by conventional neutral red assay. The class given is cell-based, WI-38.
A short description of data set [7]: Cytotoxicity against human WI38 cells assessed as reduction in cellular DNA level after 7 days by real time PCR assay. The class given is cell-based, WI-38.
Data set [8] is described as follows: Selectivity index, ratio of CC50 for human WI38 cells by conventional neutral red assay to EC50 for BKV Gardner ATCC VR837. Conditions: read-out: Ratio CC50/EC50. The class given is toxicity, cell-based, WI-38.
Data set [9] can be described thus: Cytotoxicity against human WI38 cells assessed as reduction in cellular DNA level at 6.25 uM preincubated for 2 hrs before viral infection measured after 7 days by real time PCR assay. The class given is cell-based. Conditions: wi-38, 168 h.
[10] abbreviates: Betapolyomavirus hominis, Gardner, WI-38.

pEC50: −log10 of the molar value. Some results are limits rather than exact numbers.

In the case of `CC(=O)OC[C@H]1OC[C@H](OC(C)=O)[C@@H](OC(C)=O)[C@@H]1OC(C)=O`, the pEC50 in the data set on BK polyomavirus [1] (setting [10]) was under 4.00. For the same compound, the CC50 at 168 h in [2] was over 100 µM.

In the case of `O=C1Cc2cc(CCN3CCN(c4nsc5ccccc45)CC3)c(Cl)cc2N1` [ZIPRASIDONE], in the data set with BK polyomavirus [1] (setting [10]), the pEC50 was under 4.00. In data set [2], the CC50 at 168 h was over 100 µM.

Consider `CCCCCCCCCO[C@@H]1O[C@H](CO)[C@@H](O)[C@H](O)[C@H]1O`, for which the results for the selectivity ratio at 168 h in [3] and in data set [5] were 16 and 1.25, respectively. Also, the values for the pEC50 in the data set on BK polyomavirus [4] and with BK polyomavirus [1] (setting [10]) were 4.01 and 5.20, respectively. The values for the CC50 at 168 h in data set [2] and in data set [7] were 78.3 µM and 114 µM, respectively. This compound had a CC50 in [6] of 126 µM. In addition, the selectivity ratio in [8] was found to be 30.5.

Regarding `COC(=O)[C@H]1O[C@@H](OC(C)=O)[C@H](OC(C)=O)[C@@H](OC(C)=O)[C@@H]1OC(C)=O`, the pEC50 in the data set on BK polyomavirus [1] (setting [10]) is under 4.00. For the same compound, in [2], the CC50 at 168 h was over 100 µM.

Regarding NYSTATIN, the “Ratio CC50/EC50” value in data set [3] (wi-38, 168 h) came out at 5.13. The negative logarithm of the EC50 (pEC50) in the data set on BK polyomavirus [1] (wi-38) was 5.01. Also, in data set [2] (wi-38, 168 h), the CC50 turned out to be 48.6 µM.

Turning to `COC(=O)[C@H]1O[C@@H](O)[C@H](O)[C@@H](O)[C@H]1O`, in the data set with BK polyomavirus [1] (setting [10]), the pEC50 is under 4.00. For the same compound, in data set [2], the cytotoxic concentration (CC50) at 168 h was over 100 µM.

Take `CN(C)CCCN1c2ccccc2Sc2ccc(Cl)cc21` [CHLORPROMAZINE]: in data set [3], the selectivity ratio at 168 h turned out to be 1.98. Besides, the pEC50 with BK polyomavirus [1] (setting [10]) was 5.12. Also, the CC50 at 168 h in data set [2] is 10.3 µM.

With `Cc1cc2c(s1)Nc1ccccc1N=C2N1CCN(C)CC1` [OLANZAPINE], in the data set with BK polyomavirus [1] (setting [10]), the pEC50 was under 4.00. The CC50 at 168 h in data set [2] was over 100 µM.

For `O=C(O)[C@H]1OC(O)[C@H](O)[C@@H](O)[C@@H]1O` (some centres undefined), in the data set with BK polyomavirus [1] (setting [10]), the pEC50 was under 4.00. Further, in data set [2], the cytotoxic concentration (CC50) at 168 h is over 100 µM.

Take `CO[C@H]1O[C@H](CO)[C@@H](O)[C@H](O)[C@@H]1O`: the pEC50 in the data set with BK polyomavirus [1] (setting [10]) was under 4.00. Moreover, the CC50 at 168 h in [2] was over 100 µM.

As to `CC(=O)OC[C@H]1OC[C@H](OC(C)=O)[C@@H](OC(C)=O)[C@H]1OC(C)=O`, the negative-log EC50 (pEC50) with BK polyomavirus [1] (setting [10]) was under 4.00. Also, in data set [2], the CC50 at 168 h is over 100 µM.

Consider `CN1CCN(C2=Nc3cc(Cl)ccc3Nc3ccccc32)CC1` [CLOZAPINE], for which the selectivity ratio at 168 h in data set [3] worked out at 4.9. Also, the pEC50 with BK polyomavirus [1] (setting [10]) was 4.63. Further, in data set [2], the CC50 at 168 h was determined as 40 µM.

In the case of `C[C@@H]1[C@H](O)[C@@H](C)/C=C/C=C/C=C/C=C/C=C/C=C/C=C/[C@H](O[C@@H]2O[C@H](C)[C@@H](O)[C@H](N)[C@@H]2O)C[C@@H]2O[C@](O)(C[C@@H](O)C[C@@H](O)[C@H](O)CC[C@@H](O)C[C@@H](O)CC(=O)O[C@H]1C)C[C@H](O)[C@H]2C(=O)O` [AMPHOTERICIN B], in data set [9], the outcome was Active. Moreover, the selectivity ratio at 168 h in [3] stood at 2.99. The pEC50 in the data set with BK polyomavirus [1] (setting [10]) was 5.78. Further, the CC50 at 168 h in data set [2] was found to be 4.99 µM.

Consider `O=C1OC([C@@H](O)CO)[C@H](O)[C@@H]1O` (some centres undefined), for which the pEC50 in the data set with BK polyomavirus [1] (setting [10]) is under 4.00. Further, the CC50 at 168 h in data set [2] is over 100 µM.

Take `COc1cc2c(c(OC)c1OC)-c1ccc(OC)c(=O)cc1[C@@H](NC(C)=O)CC2` [COLCHICINE]: the selectivity ratio at 168 h in [3] is 3.63. For the same compound, the pEC50 in the data set with BK polyomavirus [1] (setting [10]) was 7.66. Also, in data set [2], the CC50 at 168 h was found to be 0.0476 µM.

In the case of `Cc1nc2n(c(=O)c1CCN1CCC(c3noc4cc(F)ccc34)CC1)CCCC2` [RISPERIDONE], the pEC50 in the data set with BK polyomavirus [1] (setting [10]) is under 4.60. Also, in data set [2], the CC50 at 168 h was 25 µM.

Take `CCN(CC)CCCC(C)Nc1ccnc2cc(Cl)ccc12` (centres undefined) [CHLOROQUINE]: the selectivity ratio at 168 h in data set [3] came out at 5.32. Also, in the data set on BK polyomavirus [1] (setting [10]), the pEC50 was 5.77. The CC50 at 168 h in [2] worked out at 8.5 µM.

As for `CCCCCCCCO[C@@H]1O[C@H](CO)[C@@H](O)[C@H](O)[C@H]1O`, in the data set on BK polyomavirus [1] (setting [10]), the negative-log EC50 (pEC50) was under 4.00. Also, the CC50 at 168 h in [2] is over 100 µM.

(Values after ChEMBL document CHEMBL1137669, “BK Virus replication in vitro: limited effect of drugs interfering with viral uptake and intracellular transport” (Antimicrob Agents Chemother, 2007).)
